The results in this text go back to the supplement of paper PMC5762512.

What all share (test): IC50 cell viability (Alamar Blue, 96 h)
For orientation: The colour change of resazurin is a common sign of viable cells or microbes.

In one experiment the test system is PER-403. As for the experimental part: (§1)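 Cells in log-phase growth were seeded in 96-well plates and treated with drug for 96 h at 37°C using 8-point serial dilutions from 0.0025 to 10 µM. Viability was read by Alamar Blue fluorescence after 6 h and normalised to positive and vehicle (DMSO) controls. IC50 values were fitted in ActivityBase; the value given is the mean of two independent experiments.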

The next experiment has as its system PER-535. As for the experimental part: as §1
The next experiment has as its system 11060. As for the experimental part: as §1
The subject of another experiment is RPMI2650. As for the experimental part:
as §1

Another experiment concerns HCC2429. As for the experimental part:
as §1

The next experiment has as its system PER-536. As for the experimental part:
as §1

For another experiment, the system named is 10326. As for the experimental part:
as §1

Another experiment concerns P896-CL. As for the experimental part: as §1
The subject of a further experiment is 14169. As for the experimental part:
as §1

In another experiment the test system is PER-624. As for the experimental part: as §1
The next experiment relates to PER-704. As for the experimental part: as §1
A further experiment concerns TY82. As for the experimental part: as §1
For a further experiment, the system named is HS-27. As for the experimental part:
as §1

For the next experiment, the system named is PER-891. As for the experimental part: as §1
The test system of another experiment is 8645. As for the experimental part:
as §1

For the next experiment, the system named is CAKI-1. As for the experimental part:
as §1

The next experiment concerns A549. As for the experimental part:
as §1

A further experiment relates to WI-38. As for the experimental part:
as §1

The test system of the next experiment is TC797. As for the experimental part: as §1
Another experiment relates to PER-712. As for the experimental part: as §1

`Cc1sc2c(c1C)C(c1ccc(Cl)cc1)=N[C@@H](CC(=O)Nc1ccc(O)cc1)c1nnc(C)n1-2` [OTX-015]: the IC50 cell viability with PER-403 was 42.6 nM; in the experiment with PER-535, 622 nM; with 11060, 194 nM; in the experiment on RPMI2650, more than 10000 nM; in the experiment on HCC2429 it was 55.8 nM; in the experiment on PER-536 it was 4260 nM. Also, the IC50 cell viability in the experiment with 10326 turned out to be 6.97 nM; with P896-CL, 921 nM; in the experiment with 14169, 35.1 nM; with PER-624, 4270 nM; in the experiment with PER-704 it was 440 nM; with TY82 it was 137 nM. Also, the IC50 cell viability in the experiment on HS-27 was 2450 nM; with PER-891, 6720 nM; in the experiment on 8645, 73.6 nM; with CAKI-1, 9360 nM; in the experiment with A549 it was 784 nM; with WI-38, 543 nM. Also, the IC50 cell viability was more than 10000 nM with TC797 and 939 nM in the experiment on PER-712.

Take `COc1ccccc1S(=O)(=O)Nc1ccc2c(c1)CN(C)C(=O)N2` [PFI-1]: the IC50 cell viability was 623 nM in the experiment on PER-403; 2190 nM with PER-535; 804 nM with 11060; more than 10000 nM with RPMI2650; 551 nM with HCC2429; 5980 nM with PER-536. Moreover, the IC50 cell viability in the experiment with 10326 stood at 175 nM; with P896-CL it was 2810 nM; in the experiment on 14169, 444 nM; with PER-624, 2820 nM; with PER-704 it was 2160 nM; with TY82 it was 1580 nM. The IC50 cell viability with HS-27 worked out at 2940 nM; in the experiment on PER-891, 5220 nM; with 8645, 751 nM; in the experiment on CAKI-1, 7020 nM; with A549 it was 287 nM; with WI-38 it was 3340 nM. The IC50 cell viability in the experiment with TC797 was more than 10000 nM; in the experiment with PER-712, 1350 nM.

For the molecule `Cc1cc(/C=C/c2ccc3cc(N(C)C)ccc3[n+]2C)c(C)n1-c1ccccc1` [Pyrvinium pamoate], the IC50 cell viability was determined as 199 nM in the experiment with PER-403; 260 nM in the experiment with PER-535; 167 nM in the experiment with 11060; 421 nM in the experiment with RPMI2650; 173 nM with HCC2429; 261 nM in the experiment with PER-536. Also, the IC50 cell viability with 10326 was 230 nM; with P896-CL, 304 nM; in the experiment on 14169, 249 nM; in the experiment with PER-624, 188 nM; in the experiment on PER-704, 198 nM; in the experiment with TY82 it was 206 nM. In addition, the IC50 cell viability with HS-27 was 263 nM; in the experiment with PER-891, 396 nM; in the experiment with 8645, 268 nM; in the experiment with CAKI-1, 906 nM; with A549, 95 nM; with WI-38, 256 nM. The IC50 cell viability was 165 nM in the experiment on TC797 and 277 nM in the experiment with PER-712.

On to `CC[C@@]1(O)C(=O)OCc2c1cc1n(c2=O)Cc2cc3c(CN(C)C)c(O)ccc3nc2-1` [Topotecan], for which the IC50 cell viability in the experiment on PER-403 came to 5.01 nM; with PER-535 it was 107 nM; in the experiment with 11060, 14.6 nM; in the experiment on RPMI2650, 391 nM; in the experiment with HCC2429, 17.5 nM; in the experiment on PER-536, 81.6 nM. The IC50 cell viability was 13.3 nM in the experiment with 10326; 272 nM in the experiment with P896-CL; 17.7 nM in the experiment on 14169; 11.7 nM in the experiment on PER-624; 312 nM in the experiment on PER-704; 116 nM in the experiment with TY82. For the same molecule, the IC50 cell viability with HS-27 was 4570 nM; with PER-891 it was 728 nM; in the experiment with 8645 it was 17.4 nM; with CAKI-1, 622 nM; in the experiment on A549, 118 nM; in the experiment with WI-38, 2480 nM. In addition, the IC50 cell viability worked out at 24.3 nM in the experiment on TC797 and 243 nM with PER-712.

Turning to `CC[C@]1(O)C[C@H]2CN(CCc3c([nH]c4ccccc34)[C@@](C(=O)OC)(c3cc4c(cc3OC)N(C=O)[C@H]3[C@@](O)(C(=O)OC)[C@H](OC(C)=O)[C@]5(CC)C=CCN6CC[C@]43[C@@H]65)C2)C1` [Vincristine], the IC50 cell viability in the experiment on PER-403 was less than 2.5 nM; with PER-535 it was 6.92 nM; in the experiment with 11060, less than 2.5 nM; in the experiment with RPMI2650, more than 10000 nM; in the experiment on HCC2429 it was less than 2.5 nM; with PER-536, 20.7 nM. In addition, the IC50 cell viability is less than 2.5 nM with 10326; 8.77 nM with P896-CL; less than 2.5 nM in the experiment with 14169; 7.58 nM in the experiment with PER-624; 6.18 nM with PER-704; 8.25 nM in the experiment on TY82. Besides, the IC50 cell viability in the experiment on HS-27 was 7.19 nM; in the experiment with PER-891 it was 27.5 nM; with 8645 it was less than 2.5 nM; in the experiment on CAKI-1, 5020 nM; with A549, 6.14 nM; in the experiment with WI-38, 8.35 nM. Further, the IC50 cell viability in the experiment with TC797 was found to be 5.35 nM; in the experiment on PER-712 it was 8.68 nM.

Regarding `O=C(CCCCCCC(=O)Nc1ccccc1)NO` [Vorinostat], the IC50 cell viability in the experiment with PER-403 is 732 nM; in the experiment on PER-535, 2440 nM; in the experiment on 11060, 2740 nM; in the experiment on RPMI2650, 5840 nM; with HCC2429 it was 1170 nM; in the experiment on PER-536, more than 10000 nM. The IC50 cell viability in the experiment with 10326 was 514 nM; in the experiment on P896-CL it was 3190 nM; in the experiment on 14169, 1220 nM; with PER-624, 1540 nM; with PER-704, 2140 nM; in the experiment with TY82, 2240 nM. Further, the IC50 cell viability in the experiment with HS-27 is 4290 nM; with PER-891 it was more than 10000 nM; in the experiment on 8645 it was 561 nM; in the experiment on CAKI-1 it was 4100 nM; in the experiment with A549 it was 2070 nM; in the experiment with WI-38, 4450 nM. For the same molecule, the IC50 cell viability with TC797 is 7210 nM; with PER-712 it was 3450 nM.
